Experimental data from US11833204B2, “Visible light-activatable nanoparticles for cancer immunotherapy and use thereof” (KOREA INSTITUTE OF SCIENCE AND TECHNOLOGY, priority 2021, dated 2023).

Experiments:
[1] = ROS generation under 671 nm laser (RNO test); conditions: 10 μM, 671 nm laser 40 mW 250 sec
Experimental: ROS generation was analyzed by RNO test, where bleaching of N-nitrosodimethylaniline (RNO) by ROS was observed as a decrease in absorbance at 440 nm.
To determine the reactivity of the self-assembled nanoparticles (LT-NPs) to visible light, experimental samples and a comparative sample were prepared as follows. Each sample was mixed with a 10 μM RNO standard solution and irradiated with visible light using a 671 nm laser (SDL-671 series, Shanghai Dream Laser Technology Co., Ltd.) at a power of 40 mW for 250 sec. Absorbances were measured at 440 nm over time while being irradiated with visible light.
Control sample (VPF, control): Verteporfin (VPF) (10 μM) was mixed with physiological saline (1 mL).
Experimental sample 1 (LT-NPs(-Cat-B)): The self-assembled nanoparticles (LT-NPs) (10 μM) prepared in Example 1 were mixed with physiological saline (1 mL).
Experimental sample 2 (LT-NPs(+Cat-B)): The self-assembled nanoparticles (LT-NPs) (10 μM) prepared in Example 1 were mixed with distilled water (200 μL) containing cathepsin B (10 μg) and 1.2 mM histidine. […]
First, the absorbance before laser irradiation was defined as 1 and reduction rates of the absorbance values measured at 440 nm with respect to the absorbance before laser irradiation were calculated. The calculated values were transformed into negative natural logs (−In(y)), which were then multiplied by 100. […]

CT26 cells [2] = experiment: Immunogenic cell death: extracellular HSP70 and HMGB1 (Western blotting); format: cell-based; conditions: CT26, 5 μM, 24 h, +L/−L
Experimental: (§1) First, CT26 cells were plated in 35 mm cell culture dishes at a density of 1×10^5 cells/dish and doxorubicin (DOX) (5 μM), verteporfin (VPF) (5 μM) or the self-assembled nanoparticles (LT-NPs) (5 μM) were added to each dish. After 24-h culture, one half was exposed by irradiation with visible light using a 671 nm laser at 40 mW for 250 sec (+L) and the other half was not irradiated with visible light for comparison (−L). The immunogenic cell death of the self-assembled nanoparticles (LT-NPs) was evaluated using the cells and the cell culture media.
Before staining the cells with APC-conjugated CRT antibody, culture media were separated from the cells and the extracellular expression levels of HMGB1 and HSP70 were analyzed by Western blotting.
Each cell culture medium was treated with RIPA buffer (Cell Signaling Technology) at 4° C. for 30 min and the protein amount of the lysate was analyzed using a Pierce BCA protein assay kit (Thermo Fisher Scientific) according to the manufacturer's protocol. After SDS-PAGE, proteins were transferred to a PVDF membrane (Bio-Rad), which was then treated with Tris-buffered saline (TBS-T) containing 5% skim milk and 0.1% Tween-20. The membrane was incubated with primary antibodies at 4° C. overnight. HSP70 and HMGB1 antibodies were used as the primary antibodies. The membrane was washed with TBS-T and incubated with a secondary antibody at room temperature for 1 h. The membrane was washed with TBS-T, treated with EZ-Western Lumi Pico or Femto reagent (DoGen), and analyzed using Fusion-Solo software (Vilber) according to the manufacturer's protocol to determine band intensities.

CT26 cells [3] = experiment: Immunogenic cell death: extracellular ATP release; format: cell-based; conditions: CT26, 5 μM, 24 h, +L/−L
Experimental: as §1
ATP was analyzed using a commercially available ATP assay kit (Beyotime Biotechnology) according to the manufacturer's protocol.

CT26 cells [4] = experiment: In vivo behaviour and tumor accumulation in CT26 tumor animal model; parameters: species or system mice; conditions: 5 mg/kg i.v.
Experimental: […] nude mice (6 weeks old, 20-25 g, male) bred in a sterile environment were used. The mice were acclimated for 2 weeks prior to starting the experiment. The mice had ad libitum access to food and water in cages maintained at a temperature of 22±2° C. and a humidity of 40-60% on a 12 h light and dark cycle during the experiment. All experimental procedures were performed according to the guidelines of the Institutional Animal Care and Use Committee of the Korea Institute of Science and Technology.
Colon cancer was induced in the male nude mice. To this end, 1×10^6 CT26 cells were subcutaneously inoculated into the left thigh of each mouse to construct a tumor animal model. Thereafter, the tumor was allowed to grow until its volume reached ˜200-250 mm^3 prior to the experiment. For sample administration, the mice were randomly divided into 4 groups, 24 animals per group. Verteporfin (VPF) was intravenously administered at a concentration of 5 mg/kg (“VPF-administered group”) and the self-assembled nanoparticles (LT-NPs) were intravenously administered at a concentration of 5 mg/kg (“LT-NPs-administered group”).
The in vivo behaviors of the drugs in the administered groups were evaluated by near-infrared imaging using an IVIS Lumina system for 0.5-9 h.

C=CC1=C(C)/C2=C/C3=NC(Cc4[nH]c(c(CCCCC(=O)OC)c4C)CC4N=C(CC1N2)C(C)=C4CCC(=O)N[C@H](Cc1ccccc1)C(=O)N[C@@H](CCCNC(=N)N)C(=O)N[C@H](CCCNC(=N)N)C(=O)NCC(=O)NC1C[C@@H](OC2C[C@](O)(C(=O)CO)Cc4c(O)c5c(c(O)c42)C(=O)c2c(OC)cccc2C5=O)O[C@@H](C)[C@H]1O)[C@@]1(C)C3=CC=C(C(=O)OC)[C@@H]1C(=O)OC (some centres unmarked) [LT-NPs, VPF-FRRG(SEQ ID NO: 1)-DOX]
amount of ROS generated, relative to verteporfin (VPF) ([1]; cleaved with cathepsin B): 80%
reactivity with visible light (ROS generation), stable state ([1]; without Cat-B): hardly reactive with visible light
HMGB-1 release (CT26 cells [2]): significantly higher
HSP70 release (CT26 cells [2]): significantly higher
ATP release (CT26 cells [3]): significantly higher
accumulation in cancer cells (histological analysis) (CT26 cells [4]): accumulated in cancer cells with significantly higher efficacy than the conventional anticancer drug
fluorescence intensity in cancer cells (near-infrared imaging) (CT26 cells [4]; 0.5-9 h, IVIS Lumina): higher than those of Group 1 treated with verteporfin
fluorescence intensity in cancer cells (drug accumulated in tissues) (CT26 cells [4]; liver, lung, spleen, kidney, heart, tumor): higher than those of Group 1 treated with verteporfin
